Results published in patent publication US20260265222A1, “1H-PYRROLE-2-AMIDE DERIVATIVE, PHARMACEUTICAL COMPOSITION AND METHOD FOR TREATING AND/OR PREVENTING YTHDC1-RELATED DISEASES” (priority 2023, published 2026).

Target: T1, GST-YTHDC1 (345-509) protein (Homo sapiens, UniProt Q96MU7)
T1 construct: GST-YTHDC1 (345-509) protein
Test: Fluorescence polarization-based in vitro enzyme-level test against YTHDC1
Assay type: binding
Details: 30 nM GST-YTHDC1 (345-509), FAM-labeled m6A-modified single-stranded oligonucleotide, 18° C., 4 hours; read-out: IC50 (Inhibitory Activity against YTHDC1)

| Compound | IC50 [nM] |
| --- | --- |
| O=C(Nc1cccnc1)c1cc(C(=O)c2ccccc2C(F)(F)F)c[nH]1 [Compound 2] | 800 |
| O=C(Nc1cccnc1)c1cc(C(=O)c2c(F)cc(F)cc2Br)c[nH]1 [Compound 3] | > 50000 |
| O=C(Nc1cccnc1)c1cc(C(=O)c2c(Br)ccc(F)c2F)c[nH]1 [Compound 4] | > 50000 |
| O=C(Nc1cccnc1)c1cc(C(=O)c2ccccc2Br)c[nH]1 [Compound 5] | 1780 |
| O=C(c1ccccc1)c1c[nH]c(C(=O)Nc2cccnc2)c1 [Compound 6] | > 50000 |
| O=C(Nc1cccnc1)c1cc(C(=O)c2ccccc2F)c[nH]1 [Compound 7] | > 50000 |
| O=C(Nc1cccnc1)c1cc(C(=O)c2ccccc2Cl)c[nH]1 [Compound 8] | 2840 |
| COc1ccccc1C(=O)c1c[nH]c(C(=O)Nc2cccnc2)c1 [Compound 9] | 10600 |
| CC(C)(C)c1ccccc1C(=O)c1c[nH]c(C(=O)Nc2cccnc2)c1 [Compound 10] | 2010 |
| CCc1ccccc1C(=O)c1c[nH]c(C(=O)Nc2cccnc2)c1 [Compound 11] | 1570 |
| O=C(Nc1ccccc1)c1cc(C(=O)c2ccccc2C(F)(F)F)c[nH]1 [Compound 12] | 120 |
| O=C(Nc1ccccc1F)c1cc(C(=O)c2ccccc2C(F)(F)F)c[nH]1 [Compound 13] | 612 |
| O=C(Nc1cccc(F)c1)c1cc(C(=O)c2ccccc2C(F)(F)F)c[nH]1 [Compound 14] | 248 |
| O=C(Nc1ccc(F)cc1)c1cc(C(=O)c2ccccc2C(F)(F)F)c[nH]1 [Compound 15] | 105 |
| O=C(Nc1ccc(Br)cc1)c1cc(C(=O)c2ccccc2C(F)(F)F)c[nH]1 [Compound 16] | 41 |
| O=C(Nc1ccc(OC(F)(F)F)cc1)c1cc(C(=O)c2ccccc2C(F)(F)F)c[nH]1 [Compound 17] | 42 |
| O=C(Nc1ccc(C(F)(F)F)cc1)c1cc(C(=O)c2ccccc2C(F)(F)F)c[nH]1 [Compound 18] | 39 |
| CC(=O)c1ccc(NC(=O)c2cc(C(=O)c3ccccc3C(F)(F)F)c[nH]2)cc1 [Compound 19] | 31 |
| CCOC(=O)c1ccc(NC(=O)c2cc(C(=O)c3ccccc3C(F)(F)F)c[nH]2)cc1 [Compound 20] | 23 |

| Compound | IC50 [nM] |
| --- | --- |
| O=C(Nc1ccc(-c2ccccc2)cc1)c1cc(C(=O)c2ccccc2C(F)(F)F)c[nH]1 [Compound 21] | 71 |
| O=C(Nc1ccc(-c2ccccn2)cc1)c1cc(C(=O)c2ccccc2C(F)(F)F)c[nH]1 [Compound 22] | 23 |
| O=C(Nc1ccc(-c2cccnc2)cc1)c1cc(C(=O)c2ccccc2C(F)(F)F)c[nH]1 [Compound 23] | 47 |
| O=C(Nc1ccc(-c2ccncc2)cc1)c1cc(C(=O)c2ccccc2C(F)(F)F)c[nH]1 [Compound 24] | 12 |
| O=C(Nc1ccc(-c2ccoc2)cc1)c1cc(C(=O)c2ccccc2C(F)(F)F)c[nH]1 [Compound 25] | 36 |
| O=C(Nc1ccc(-c2ccsc2)cc1)c1cc(C(=O)c2ccccc2C(F)(F)F)c[nH]1 [Compound 26] | 64 |
| O=C(Nc1ccc(-c2cnc[nH]2)cc1)c1cc(C(=O)c2ccccc2C(F)(F)F)c[nH]1 [Compound 27] | 23 |
| O=C(Nc1ccc(-c2cnco2)cc1)c1cc(C(=O)c2ccccc2C(F)(F)F)c[nH]1 [Compound 28] | 10 |
| Cn1nc(C(F)(F)F)cc1-c1ccc(NC(=O)c2cc(C(=O)c3ccccc3C(F)(F)F)c[nH]2)cc1 [Compound 30] | 530 |
| N#Cc1ccc(-c2ccc(NC(=O)c3cc(C(=O)c4ccccc4C(F)(F)F)c[nH]3)cc2)s1 [Compound 31] | 15 |
| Cc1ncc(-c2ccc(NC(=O)c3cc(C(=O)c4ccccc4C(F)(F)F)c[nH]3)cc2)s1 [Compound 32] | 11 |
| Cc1ncsc1-c1ccc(NC(=O)c2cc(C(=O)c3ccccc3C(F)(F)F)c[nH]2)cc1 [Compound 33] | 12 |
| O=C(Nc1ccc(-c2cnc(N3CC(F)C3)s2)cc1)c1cc(C(=O)c2ccccc2C(F)(F)F)c[nH]1 [Compound 34] | 22 |
| O=C(Nc1ccc(-c2cnc(N3CC(F)(F)C3)s2)cc1)c1cc(C(=O)c2ccccc2C(F)(F)F)c[nH]1 [Compound 35] | 424 |
| O=C(Nc1ccc(-c2cnc(N3CCCC3)s2)cc1)c1cc(C(=O)c2ccccc2C(F)(F)F)c[nH]1 [Compound 36] | 13 |
| O=C(Nc1ccc(-c2cnc(N3CCCCC3)s2)cc1)c1cc(C(=O)c2ccccc2C(F)(F)F)c[nH]1 [Compound 37] | 335 |
| O=C(Nc1ccc(-c2cnc(N3CCOCC3)s2)cc1)c1cc(C(=O)c2ccccc2C(F)(F)F)c[nH]1 [Compound 38] | 17 |
| O=C(c1ccc(C(F)(F)F)cc1)c1c[nH]c(C(=O)Nc2ccc(-c3cncs3)cc2)c1 [Compound 39] | > 50000 |
| CC(C)n1nccc1-c1nccc2[nH]c(C(=O)Nc3ccc(-c4cncs4)cc3)cc12 [Compound 40] | > 50000 |

| Compound | IC50 [nM] |
| --- | --- |
| O=C(Nc1ccc(-c2cncs2)cc1)c1cc2c(-c3ccccc3C(F)(F)F)nccc2[nH]1 [Compound 41] | 192 |
| O=C(Nc1ccc(-c2cncs2)cc1)c1cc2c(ncn2-c2ccccc2C(F)(F)F)[nH]1 [Compound 42] | 180 |
| N#Cc1ccccc1-c1nccc2[nH]c(C(=O)Nc3ccc(-c4cncs4)cc3)cc12 [Compound 43] | 3900 |
| O=C(Nc1ccc(-c2cncs2)cc1)c1cc2c(-c3ccccc3OC(F)(F)F)nccc2[nH]1 [Compound 44] | 138 |
| O=C(Nc1ccc(-c2cncs2)cc1)c1cc2c(-c3ccccc3CO)nccc2[nH]1 [Compound 45] | > 50000 |
| COc1cnccc1-c1nccc2[nH]c(C(=O)Nc3ccc(-c4cncs4)cc3)cc12 [Compound 46] | > 50000 |
| O=C(Nc1ccc(-c2cncs2)cc1)c1cc2c(-c3ccccc3)nccc2[nH]1 [Compound 47] | > 50000 |
| O=C(Nc1ccc(-c2cncs2)cc1)c1cc2c(-c3ccc(C(F)(F)F)cc3C(F)(F)F)nccc2[nH]1 [Compound 48] | > 50000 |
| O=C(Nc1ccc(-c2cncs2)cc1)c1cc2c(-c3ccncc3C(F)(F)F)nccc2[nH]1 [Compound 49] | > 50000 |
| CS(=O)(=O)c1ccccc1-c1nccc2cc(C(=O)Nc3ccc(-c4cncs4)cc3)[nH]c12 [Compound 50] | 67 |
| CC(=O)c1ccccc1-c1nccc2[nH]c(C(=O)Nc3ccc(-c4cncs4)cc3)cc12 [Compound 51] | > 50000 |
| CS(=O)(=O)Nc1ccccc1-c1nccc2[nH]c(C(=O)Nc3ccc(-c4cncs4)cc3)cc12 [Compound 52] | 660 |
| O=C(Nc1ccc(-c2cncs2)cc1)c1cc2c(-c3ccccc3F)nccc2[nH]1 [Compound 53] | > 50000 |
| O=C(Nc1ccc(-c2cncs2)cc1)c1cc2c(-c3c[nH]nc3C(F)(F)F)nccc2[nH]1 [Compound 54] | > 50000 |
| O=C(Nc1ccc(-c2cncs2)cc1)c1cc2c(-c3ccccc3[N+](=O)[O-])nccc2[nH]1 [Compound 55] | 278 |
| O=C(Nc1ccc(-c2cncs2)cc1)c1cc2c(-c3ccccc3N3CCOCC3)nccc2[nH]1 [Compound 56] | 928 |
| CC(C)(C)NS(=O)(=O)c1ccccc1-c1nccc2[nH]c(C(=O)Nc3ccc(-c4cncs4)cc3)cc12 [Compound 57] | > 50000 |
| CS(=O)(=O)c1ccccc1-c1ncc(F)c2[nH]c(C(=O)Nc3ccc(-c4cncs4)cc3)cc12 [Compound 58] | 80 |
| O=C(Nc1ccc(-c2cncs2)cc1)c1cc2c(-c3ccccc3OC(F)(F)F)c(F)ccc2[nH]1 [Compound 59] | > 50000 |
